Source: US6472418B1, “Non-peptide NK1 receptors antagonists” (Warner-Lambert Company, priority 1998, dated 2002)

molecular target: T1, Human NK1 Receptor (Homo sapiens, UniProt P25103); assay: In Vitro Human NK1 Receptor Binding Assay ([125I]Bolton-Hunter substance P displacement, IM9 cells); conditions: Human lymphoma IM9 cells, [125I]Bolton-Hunter substance P; Table 3, array-synthesis products; read-out: IC50 (nM) hNK1
T1 construct: endogenous in cells; host or cells: Human lymphoma IM9 cells (whole cells)
How it was run: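 Test compounds competed with 0.05-0.1 nM [125I]Bolton-Hunter substance P for binding to intact IM9 cells over 50 min at 21° C, pH 7.4 buffer with MnCl2 and peptidase inhibitors. […] [Sar9, Met(O2)11] substance P gave non-specific binding. Bound counts were measured after filtration and fitted iteratively.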

T1 sequence (P25103 whole entry): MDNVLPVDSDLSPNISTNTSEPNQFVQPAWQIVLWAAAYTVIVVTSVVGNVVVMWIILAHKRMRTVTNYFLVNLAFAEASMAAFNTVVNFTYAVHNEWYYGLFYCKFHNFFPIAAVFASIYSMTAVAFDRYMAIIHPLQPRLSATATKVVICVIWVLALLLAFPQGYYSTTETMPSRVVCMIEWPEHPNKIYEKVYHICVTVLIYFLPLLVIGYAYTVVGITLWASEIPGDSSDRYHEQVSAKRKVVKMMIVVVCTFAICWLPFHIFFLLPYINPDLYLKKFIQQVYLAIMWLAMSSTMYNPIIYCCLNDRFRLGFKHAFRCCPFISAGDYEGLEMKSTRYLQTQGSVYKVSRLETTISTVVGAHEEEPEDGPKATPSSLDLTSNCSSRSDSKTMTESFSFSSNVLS

| Molecule | IC50 [nM] |
| --- | --- |
| Cc1cccc(CNC(=O)C(Cc2c[nH]c3ccccc23)NCc2cc3ccccc3o2)c1 (centres unmarked) [Example 252, 2-[(Benzofuran-2-ylmethyl)-amino]-3-(1H-indol-3-yl)-N-(3-methyl-benzyl)-propionamide] | 33 |
| O=C(O)C1CCC(CNC(=O)C(Cc2c[nH]c3ccccc23)NCc2cc3ccccc3o2)CC1 (centres unmarked) [Example 286, 4-{[2-[(Benzofuran-2-ylmethyl)-amino]-3-(1H-indol-3-yl)-propionylamino]-methyl}-cyclohexanecarboxylic acid] | > 10000 |
| O=C(NCc1cc(F)ccc1F)C(Cc1c[nH]c2ccccc12)NCc1cc2ccccc2o1 (centres unmarked) [Example 204, 2-[(Benzofuran-2-ylmethyl)-amino]-N-(2,5-difluoro-benzyl)-3-(1H-indol-3-yl)-propionamide] | 68 |

same assay, conditions: Table 4; [125I]Bolton-Hunter substance P displacement, human IM9 cells; read-out: IC50 (nM) hNK1

| Molecule | IC50 [nM] |
| --- | --- |
| 3-(1H-Indol-3-yl)-2-methyl-N-(1-phenyl-ethyl)-2-[4-(2-pyrrolidin-1-yl-ethoxy)-benzylamino]-propionamide [compound 335] | > 10000 |
| CC(NC(=O)C(C)(Cc1c[nH]c2ccccc12)NCc1ccc(C=Cc2ccccc2)o1)c1ccccc1 (centres unmarked) [compound 325, 3-(1H-Indol-3-yl)-2-methyl-N-(1-phenyl-ethyl)-2-[(5-styryl-furan-2-ylmethyl)-amino]-propionamide] | 72 |
| 3-(1H-Indol-3-yl)-2-methyl-N-(1-phenyl-ethyl)-2-[(pyridin-4-ylmethyl)-amino]-propionamide [compound 313] | 50 |
| CC(NC(=O)C(C)(Cc1c[nH]c2ccccc12)NCc1ccc2ccccc2n1)c1ccccc1 (centres unmarked) [compound 311, 3-(1H-Indol-3-yl)-2-methyl-N-(1-phenyl-ethyl)-2-[(quinolin-2-ylmethyl)-amino]-propionamide] | 88 |

same assay, conditions: human NK1 receptor, IM9 cells, [125I]Bolton-Hunter substance P; read-out: IC50 (nM) hNK1

| Molecule | IC50 [nM] |
| --- | --- |
| CC(Cc1c[nH]c2ccccc12)(NCc1cc2ccccc2o1)C(=O)NCc1cccc(Cl)c1 (centres unmarked) [compound 77, 2-[(Benzofuran-2-ylmethyl)-amino]-N-(3-chloro-benzyl)-3-(1H-indol-3-yl)-2-methyl-propionamide] | 17 |
| CC(Cc1c[nH]c2ccccc12)(NCc1cc2ccccc2o1)C(=O)NCc1cc(C(F)(F)F)cc(C(F)(F)F)c1 (centres unmarked) [compound 51, 2-[(Benzofuran-2-ylmethyl)-amino]-N-(3,5-bis-trifluoromethyl-benzyl)-3-(1H-indol-3-yl)-2-methyl-propionamide] | 179 |
| CC(Cc1c[nH]c2ccccc12)(NCc1cc2ccccc2o1)C(=O)NC(CO)Cc1c[nH]cn1 (centres unmarked) [compound 183, 2-[(Benzofuran-2-ylmethyl)-amino]-N-[1-hydroxymethyl-2-(1H-imidazol-4-yl)-ethyl]-3-(1H-indol-3-yl)-2-methyl-propionamide] | > 10000 |
| CC(Cc1c[nH]c2ccccc12)(NCc1cc2ccccc2o1)C(=O)NCc1cccc(C(F)(F)F)c1 (centres unmarked) [compound 74, 2-[(Benzofuran-2-ylmethyl)-amino]-3-(1H-indol-3-yl)-2-methyl-N-(3-trifluoromethyl-benzyl)-propionamide] | 12 |
| CC(Cc1c[nH]c2ccccc12)(NCc1cc2ccccc2o1)C(=O)NCCN1CCCC1=O (centres unmarked) [compound 99, 2-[(Benzofuran-2-ylmethyl)-amino]-3-(1H-indol-3-yl)-2-methyl-N-[2-(2-oxo-pyrrolidin-1-yl)-ethyl]-propionamide] | > 10000 |
| CC(Cc1c[nH]c2ccccc12)(NCc1cc2ccccc2o1)C(=O)NCC1(c2ccccc2)CC1 (centres unmarked) [compound 110, 2-[(Benzofuran-2-ylmethyl)-amino]-3-(1H-indol-3-yl)-2-methyl-N-(1-phenyl-cyclopropylmethyl)-propionamide] | 1140 |
| CC1(CNC(=O)C(C)(Cc2c[nH]c3ccccc23)NCc2cc3ccccc3o2)CCCO1 (centres unmarked) [compound 136, 2-[(Benzofuran-2-ylmethyl)-amino]-3-(1H-indol-3-yl)-2-methyl-N-(2-methyl-tetrahydro-furan-2-ylmethyl)-propionamide] | > 10000 |
